Experiments:
[1] = biological target: GRPR expressed in breast, prostate, and Gastro Intestinal Stromal Tumor (GIST) (Homo sapiens, UniProt P30550); details: non-clinical models; cited from earlier work
GRPR = GRPR (Homo sapiens, UniProt P30550); details: non-clinical models; cited from earlier work
[2] = Radiochemical purity (RCP) stability of 177Lu-NeoB drug product formulations over shelf life (72 h), lab-scale batches; assay type: physicochemical; details: Table 7: gentisic acid 1000 μg/mL, ascorbic acid 15000 μg/mL, Kolliphor HS 15 100 μg/mL, about 200 mCi, 10 mCi/mL; end of shelf life (72 hours)
Experimental: “Radiochemical purity”: is that percentage of the stated radionuclide that is present in the stated chemical or biological form. Radiochromatography methods, such as HPLC method or instant Thin Layer Chromatography method (ITLC), are the most commonly accepted methods for determining radiochemical purity in the nuclear pharmacy.
The stability of the ^177Lu-labelled product over 72 hours with the same antioxidant amount present in the Lutathera formulation. In particular, the following conditions are reproduced: […] step; • Kolliphor HS 15:1 mg added before the labelling step; • Peptide: Lu ratio≥1.5; […] during the formulation step; • Final volumetric Activity 10 mCi/mL; • Final pH 4-6; • Reaction buffer: Acetic acid/acetate buffer;
The radiolabelling tests are carried out both manually and automatically by using the MiniAlO synthesizer. The synthesis procedure is developed as follows: • 1. Transferring of ^177LuCl3 into reactor; • 2. Transferring of the reaction buffer into reactor. The reaction buffer is composed of sodium acetate buffer and gentisic acid. The acetate buffer allows to maintain the labelling pH between 4-5, while the gentisic acid protects the peptide from radiolysis during the labelling step; • 3. Addition of the NeoB1 solution containing Kolliphor HS 15 into reactor; • 4. Heating at 95° C. for 5 minutes; […]

Sequence of GRPR expressed in breast, prostate, and Gastro Intestinal Stromal Tumor (GIST) (P30550 whole entry): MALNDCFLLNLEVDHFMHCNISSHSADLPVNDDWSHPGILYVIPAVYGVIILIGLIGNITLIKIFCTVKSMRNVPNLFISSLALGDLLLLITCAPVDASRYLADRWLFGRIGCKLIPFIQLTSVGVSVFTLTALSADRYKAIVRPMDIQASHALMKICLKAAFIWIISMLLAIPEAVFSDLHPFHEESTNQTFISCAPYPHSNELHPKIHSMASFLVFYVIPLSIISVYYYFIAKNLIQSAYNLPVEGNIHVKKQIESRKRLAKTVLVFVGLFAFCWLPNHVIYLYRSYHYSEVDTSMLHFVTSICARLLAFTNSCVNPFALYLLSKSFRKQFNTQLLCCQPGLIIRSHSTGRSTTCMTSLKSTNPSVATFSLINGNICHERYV
Sequence of GRPR (P30550 whole entry): as above

SMILES	affinity to the GRPR [1]	degree of internalization upon binding to the specific receptor (GRPR)	Radiochemical purity (%) at end of shelf life [2]
CC(C)CC(CC(C)C)NC(=O)[C@H](Cc1cnc[nH]1)NC(=O)CNC(=O)[C@@H](NC(=O)[C@H](C)NC(=O)[C@H](Cc1c[nH]c2ccccc12)NC(=O)[C@H](CCC(N)=O)NC(=O)[C@@H](Cc1ccccc1)NC(=O)COCC(=O)Nc1ccc(CNC(=O)CN2CCN(CC(=O)O)CCN(CC(=O)O)CCN(CC(=O)O)CC2)cc1)C(C)C [[^68Ga]-NeoB, metal not drawn]	high affinity	low degree of internalization	–
CC(C)CC(CC(C)C)NC(=O)[C@H](Cc1cnc[nH]1)NC(=O)CNC(=O)[C@@H](NC(=O)[C@H](C)NC(=O)[C@H](Cc1c[nH]c2ccccc12)NC(=O)[C@H](CCC(N)=O)NC(=O)[C@@H](Cc1ccccc1)NC(=O)COCC(=O)Nc1ccc(CNC(=O)CN2CCN(CC(=O)O)CCN(CC(=O)O)CCN(CC(=O)O)CC2)cc1)C(C)C [[^177Lu]-NeoB, metal not drawn]	–	–	over 95%

From patent publication US12685790B2, “Stable, concentrated radiopharmaceutical composition” (NOVARTIS AG, priority 2019, dated 2026)
